In ChEMBL document CHEMBL4673219, “Novel 5,6-disubstituted pyrrolo[2,3-d]pyrimidine derivatives as broad spectrum antiproliferative agents: Synthesis, cell based assays, kinase profile and molecular docking study” (Bioorg Med Chem, 2018):

Legend:
Assay type in all cases: functional
HCC 2998 = assay: Growth inhibition of human HCC 2998 cells assessed as growth percentage at 0.01 uM incubated for 48 hrs by sulforhodamine B assay relative to control; conditions: read-out: Activity
MOLT-4 = assay: Growth inhibition of human MOLT-4 cells assessed as growth percentage at 10 uM incubated for 48 hrs by sulforhodamine B assay relative to control; conditions: read-out: Activity
LOX IMVI [1] = assay: Growth inhibition of human LOX IMVI cells assessed as growth percentage at 0.1 uM incubated for 48 hrs by sulforhodamine B assay relative to control; conditions: read-out: Activity
OVCAR-4 = assay: Growth inhibition of human OVCAR-4 cells assessed as growth percentage at 0.1 uM incubated for 48 hrs by sulforhodamine B assay relative to control; conditions: read-out: Activity
OVCAR-8 [2] = assay: Growth inhibition of human OVCAR-8 cells assessed as growth percentage at 0.1 uM incubated for 48 hrs by sulforhodamine B assay relative to control; conditions: read-out: Activity
HOP-62 [3] = assay: Growth inhibition of human HOP-62 cells assessed as growth percentage at 100 uM incubated for 48 hrs by sulforhodamine B assay relative to control; conditions: read-out: Activity
COLO 205 = assay: Growth inhibition of human COLO 205 cells assessed as growth percentage at 10 uM incubated for 48 hrs by sulforhodamine B assay relative to control; conditions: read-out: Activity
SK-MEL-5 [4] = assay: Growth inhibition of human SK-MEL-5 cells assessed as growth percentage at 100 uM incubated for 48 hrs by sulforhodamine B assay relative to control; conditions: read-out: Activity
OVCAR-8 [5] = assay: Growth inhibition of human OVCAR-8 cells assessed as growth percentage at 10 uM incubated for 48 hrs by sulforhodamine B assay relative to control; conditions: read-out: Activity
NCI-H522 [6] = assay: Growth inhibition of human NCI-H522 cells assessed as growth percentage at 1 uM incubated for 48 hrs by sulforhodamine B assay relative to control; conditions: read-out: Activity
NCI-H226 = assay: Growth inhibition of human NCI-H226 cells incubated for 48 hrs by sulforhodamine B assay; conditions: Homo sapiens
MDA-MB-468 = assay: Growth inhibition of human MDA-MB-468 cells assessed as growth percentage at 10 uM incubated for 48 hrs by sulforhodamine B assay relative to control; conditions: read-out: Activity
SF-295 = assay: Growth inhibition of human SF-295 cells assessed as growth percentage at 0.1 uM incubated for 48 hrs by sulforhodamine B assay relative to control; conditions: read-out: Activity
A498 [7] = assay: Growth inhibition of human A498 cells assessed as growth percentage at 0.1 uM incubated for 48 hrs by sulforhodamine B assay relative to control; conditions: read-out: Activity
A498 [8] = assay: Growth inhibition of human A498 cells assessed as growth percentage at 0.01 uM incubated for 48 hrs by sulforhodamine B assay relative to control; conditions: read-out: Activity
CAKI-1 [9] = assay: Growth inhibition of human CAKI-1 cells assessed as growth percentage at 0.01 uM incubated for 48 hrs by sulforhodamine B assay relative to control; conditions: read-out: Activity
RXF 393 [10] = assay: Growth inhibition of human RXF 393 cells incubated for 48 hrs by sulforhodamine B assay
SK-MEL-5 [11] = assay: Growth inhibition of human SK-MEL-5 cells assessed as growth percentage at 0.1 uM incubated for 48 hrs by sulforhodamine B assay relative to control; conditions: read-out: Activity
NCI-H23 = assay: Growth inhibition of human NCI-H23 cells assessed as growth percentage at 10 uM incubated for 48 hrs by sulforhodamine B assay relative to control; conditions: read-out: Activity
UACC-257 = assay: Growth inhibition of human UACC-257 cells assessed as growth percentage at 100 uM incubated for 48 hrs by sulforhodamine B assay relative to control; conditions: read-out: Activity
U-251 = assay: Growth inhibition of human U-251 cells assessed as growth percentage at 10 uM incubated for 48 hrs by sulforhodamine B assay relative to control; conditions: read-out: Activity
BT-549 [12] = assay: Growth inhibition of human BT-549 cells assessed as growth percentage at 100 uM incubated for 48 hrs by sulforhodamine B assay relative to control; conditions: read-out: Activity
LOX IMVI [13] = assay: Growth inhibition of human LOX IMVI cells assessed as growth percentage at 10 uM incubated for 48 hrs by sulforhodamine B assay relative to control; conditions: read-out: Activity
SF-268 [14] = assay: Growth inhibition of human SF-268 cells assessed as growth percentage at 10 uM incubated for 48 hrs by sulforhodamine B assay relative to control; conditions: read-out: Activity
786-0 = assay: Growth inhibition of human 786-0 cells assessed as growth percentage at 1 uM incubated for 48 hrs by sulforhodamine B assay relative to control; conditions: read-out: Activity
NCI-H522 [15] = assay: Growth inhibition of human NCI-H522 cells assessed as growth percentage at 0.01 uM incubated for 48 hrs by sulforhodamine B assay relative to control; conditions: read-out: Activity
RXF 393 [16] = assay: Growth inhibition of human RXF 393 cells assessed as growth percentage at 0.01 uM incubated for 48 hrs by sulforhodamine B assay relative to control; conditions: read-out: Activity
SNB-75 = assay: Growth inhibition of human SNB-75 cells assessed as growth percentage at 100 uM incubated for 48 hrs by sulforhodamine B assay relative to control; conditions: read-out: Activity
HCT-116 = assay: Growth inhibition of human HCT-116 cells assessed as growth percentage at 0.1 uM incubated for 48 hrs by sulforhodamine B assay relative to control; conditions: read-out: Activity
T47D = assay: Growth inhibition of human T47D cells assessed as growth percentage at 0.01 uM incubated for 48 hrs by sulforhodamine B assay relative to control; conditions: read-out: Activity
Malme-3M = assay: Growth inhibition of human Malme-3M cells assessed as growth percentage at 100 uM incubated for 48 hrs by sulforhodamine B assay relative to control; conditions: read-out: Activity
OVCAR-3 = assay: Growth inhibition of human OVCAR-3 cells incubated for 48 hrs by sulforhodamine B assay
HOP-62 [17] = assay: Growth inhibition of human HOP-62 cells assessed as growth percentage at 1 uM incubated for 48 hrs by sulforhodamine B assay relative to control; conditions: read-out: Activity
BT-549 [18] = assay: Growth inhibition of human BT-549 cells incubated for 48 hrs by sulforhodamine B assay
OVCAR-8 [19] = assay: Growth inhibition of human OVCAR-8 cells assessed as growth percentage at 100 uM incubated for 48 hrs by sulforhodamine B assay relative to control; conditions: read-out: Activity
CAKI-1 [20] = assay: Growth inhibition of human CAKI-1 cells assessed as growth percentage at 1 uM incubated for 48 hrs by sulforhodamine B assay relative to control; conditions: read-out: Activity
SF-268 [21] = assay: Growth inhibition of human SF-268 cells assessed as growth percentage at 0.1 uM incubated for 48 hrs by sulforhodamine B assay relative to control; conditions: read-out: Activity
PC-3 = assay: Growth inhibition of human PC-3 cells assessed as growth percentage at 1 uM incubated for 48 hrs by sulforhodamine B assay relative to control; conditions: read-out: Activity
UO-31 = assay: Growth inhibition of human UO-31 cells assessed as growth percentage at 0.01 uM incubated for 48 hrs by sulforhodamine B assay relative to control; conditions: read-out: Activity

Structure (SMILES): CCCCCCCC(=O)Nc1nc2[nH]c(CN3CCN(Cc4cccc(F)c4)CC3)c(CN3CCN(Cc4cccc(F)c4)CC3)c2c(=O)[nH]1
- growth at 0.01 µM (HCC 2998): 99%
- growth at 10 µM (MOLT-4): -40%
- growth at 0.1 µM (LOX IMVI [1]): 94%
- growth at 0.1 µM (OVCAR-4): 84%
- growth at 0.1 µM (OVCAR-8 [2]): 103%
- growth at 100 µM (HOP-62 [3]): -95%
- growth at 10 µM (COLO 205): -90.9%
- growth at 100 µM (SK-MEL-5 [4]): -81%
- growth at 10 µM (OVCAR-8 [5]): -77.7%
- growth at 1 µM (NCI-H522 [6]): 100%
- TGI (NCI-H226; NCI-H226): 3.84 µM
- GI50 (NCI-H226; NCI-H226, 48 h): 1.84 µM
- CC50 (NCI-H226; NCI-H226, 48 h, read-out: LC50 (the source's name)): 8.04 µM
- growth at 10 µM (MDA-MB-468): -68.7%
- growth at 0.1 µM (SF-295): 94%
- growth at 0.1 µM (A498 [7]): 76%
- growth at 0.01 µM (A498 [8]): 66%
- growth at 0.01 µM (CAKI-1 [9]): 92%
- GI50 (RXF 393 [10]): 0.51 µM
- LC50 (concentration killing 50% of cells) (RXF 393 [10]): 4.45 µM
- TGI (RXF 393 [10]): 1.74 µM
- growth at 0.1 µM (SK-MEL-5 [11]): 101%
- growth at 10 µM (NCI-H23): -53.8%
- growth at 100 µM (UACC-257): -91%
- growth at 10 µM (U-251): -92.7%
- growth at 100 µM (BT-549 [12]): -91%
- growth at 10 µM (LOX IMVI [13]): -88.5%
- growth at 10 µM (SF-268 [14]): -92.2%
- growth at 1 µM (786-0): 83%
- growth at 0.01 µM (NCI-H522 [15]): 106%
- growth at 0.01 µM (RXF 393 [16]): 100%
- growth at 100 µM (SNB-75): -99%
- growth at 0.1 µM (HCT-116): 93%
- growth at 0.01 µM (T47D): 95%
- growth at 100 µM (Malme-3M): -73%
- GI50 (OVCAR-3; 48 h): 0.78 µM
- TGI (OVCAR-3; Homo sapiens, OVCAR-3): 2.17 µM
- GI50 (OVCAR-3; Homo sapiens, OVCAR-3, 48 h): 0.781 µM
- CC50 (OVCAR-3; Homo sapiens, OVCAR-3, read-out: LC50 (the source's name)): 5.28 µM
- growth at 1 µM (HOP-62 [17]): 75%
- GI50 (BT-549 [18]): 1.53 µM
- TGI (BT-549 [18]): 2.92 µM
- CC50 (BT-549 [18]; read-out: LC50 (the source's name)): 5.58 µM
- growth at 100 µM (OVCAR-8 [19]): -81%
- growth at 1 µM (CAKI-1 [20]): 70%
- growth at 0.1 µM (SF-268 [21]): 95%
- growth at 1 µM (PC-3): 68%
- growth at 0.01 µM (UO-31): 77%
